According to US20070032529A1, “Pyrazole compounds and their use as antidiabetes agents” (Japan Tobacco Inc., priority 2005, published 2007):

What was measured:
[1] = target: T1, recombinant human liver glycogen phosphorylase (Homo sapiens, UniProt P06737); assay: Measuring liver glycogen phosphorylase activity (forward reaction system, NADPH absorbance at 340 nm); format: biochemical; conditions: for IC50: enzyme inhibitory activity with respect to liver glycogen phosphorylase, class symbols
T1 construct: made in house; host or cells: Sf9 insect cells (crude homogenate, diluted, used as the enzyme solution)
T1 sequence (P06737 1-847): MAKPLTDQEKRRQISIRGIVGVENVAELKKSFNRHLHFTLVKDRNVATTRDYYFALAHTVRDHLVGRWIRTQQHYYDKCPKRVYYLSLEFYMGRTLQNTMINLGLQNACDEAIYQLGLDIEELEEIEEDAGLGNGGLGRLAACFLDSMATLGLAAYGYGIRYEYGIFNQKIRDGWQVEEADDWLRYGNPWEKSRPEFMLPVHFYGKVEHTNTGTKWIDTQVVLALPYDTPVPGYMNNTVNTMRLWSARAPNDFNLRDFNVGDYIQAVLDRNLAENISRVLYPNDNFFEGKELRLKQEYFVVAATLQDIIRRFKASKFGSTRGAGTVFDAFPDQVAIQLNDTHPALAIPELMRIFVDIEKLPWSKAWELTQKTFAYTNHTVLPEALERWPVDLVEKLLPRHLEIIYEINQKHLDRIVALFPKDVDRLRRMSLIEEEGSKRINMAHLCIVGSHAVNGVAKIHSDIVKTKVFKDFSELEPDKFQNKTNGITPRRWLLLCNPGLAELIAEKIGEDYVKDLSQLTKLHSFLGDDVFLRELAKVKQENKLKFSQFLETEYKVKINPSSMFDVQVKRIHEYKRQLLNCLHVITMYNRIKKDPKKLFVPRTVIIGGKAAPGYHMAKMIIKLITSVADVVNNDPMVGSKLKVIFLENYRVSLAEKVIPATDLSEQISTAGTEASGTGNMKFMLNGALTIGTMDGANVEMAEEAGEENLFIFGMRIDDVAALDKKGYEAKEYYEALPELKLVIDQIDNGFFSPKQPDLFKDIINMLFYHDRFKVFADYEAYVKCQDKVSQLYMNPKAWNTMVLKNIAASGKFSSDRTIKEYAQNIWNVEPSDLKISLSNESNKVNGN
How it was run: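 Sf9 homogenate expressing the enzyme, in pH 6.8 BES/EDTA, with glycogen and phosphate substrate plus glucose, coupled via phosphoglucomutase/G6PDH to NADPH formation. A340 change over 75 min at room temperature, blank-corrected; IC50 linearly interpolated between the two concentrations bracketing 50% inhibition versus 1% DMSO control.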

db/db mice = assay: Measuring blood plasma glucose concentration in db/db mice (hypoglycemic effect); format: in vivo; set-up: key: ++: compounds exhibiting statistically significant hypoglycemic effect at a dose of 10 mg/kg or less; +: compounds exhibiting not significant but obvious hypoglycemic effect at a dose of 10 mg/kg; conditions: for vivo (hypoglycemic effect in db/db mice): db/db mice fasted 4 h, oral administration, plasma glucose 1 and 3 hours after administration, dose 10 mg/kg or less, Dunnett test vs solvent
Protocol: 2. Exemplary Test (2) Method for Measuring Blood Plasma Glucose Concentration
Using db/db mice representing an obesity type of diabetic model were used to examine the effect of compound (1) of the present invention on glucose concentrations in plasma. Plasma glucose concentrations of the db/db mice (9-18 weeks old) were measured, and the mice were divided into groups each of 5 or 8 mice such that there would be no difference in the average value of plasma glucose concentrations. After fasting for four hours, the example compound or the solvent (0.5% methylcellulose) was administered orally to the db/db mice, and plasma glucose concentrations were measured 1 and 3 hours after administration. The analysis of the hypoglycemic effect of the example compound was performed through a statistical test at every hour between the group receiving the solvent and the groups of example compound (Dunnett test).

Compound	IC50 [1] [nM]	inhibition at 0.1 µM ([1]; figure in brackets (100), read-out: IC50: % value given with (100)) [%]	vivo (hypoglycemic effect in db/db mice) (db/db mice)	vivo (hypoglycemic effect) (db/db mice; db/db mice, blood plasma glucose, dose of 10 mg/kg or less)
Cc1nc(N2CCOCC2)sc1CNC(=O)c1cc(NC(=O)c2cc(F)c(F)cc2Cl)[nH]n1 [Example 1-63]	< 100	–	+	–
COCCN(C(=O)c1cc(NC(=O)c2cc(F)c(F)cc2Cl)[nH]n1)C1CCCC1 [Example 1-98]	< 100	–	+	–
O=C(NCc1c(Cl)cncc1Cl)c1cc(NC(=O)c2cc(F)c(F)cc2Cl)[nH]n1 [Example 1-135]	< 100	–	+	–
CC(C)Oc1ncccc1CNC(=O)c1cc(NC(=O)c2cc(F)c(F)cc2Cl)[nH]n1 [Example 1-24]	< 100	–	+	–
Cc1ccc(CNC(=O)c2cc(NC(=O)c3cc(F)c(F)cc3Cl)[nH]n2)cc1 [Example 1-69]	< 100	–	+	–
O=C(NCc1ccc(F)cc1F)c1cc(NC(=O)c2cc(F)c(F)cc2Cl)[nH]n1 [Example 1-19]	< 100	–	+	–
COc1ccc(CN(C(=O)c2cc(NC(=O)c3cc(F)c(F)cc3Cl)[nH]n2)C2CCC2)cn1 [Example 1-127]	< 100	–	+	–
CCCN(CCOC)C(=O)c1cc(NC(=O)c2cc(F)c(F)cc2Cl)[nH]n1 [Example 1-95]	< 100	–	+	–
CCCN(Cc1ccc(Cl)nc1)C(=O)c1cc(NC(=O)c2cc(F)c(F)cc2Cl)[nH]n1 [Example 1-133]	< 100	–	+	–
O=C(NCc1nc2ccccc2s1)c1cc(NC(=O)c2cc(F)c(F)cc2Cl)[nH]n1 [Example 1-52]	< 100	–	+	–
O=C(Nc1cc(C(=O)N(Cc2cccnc2)C2CCCCC2)n[nH]1)c1cc(F)c(F)cc1Cl [Example 1-91]	< 100	–	+	–
COc1ccc(CN(C(=O)c2cc(NC(=O)c3cc(F)c(F)cc3Cl)[nH]n2)C2CC2)cn1 [Example 1-126]	< 100	–	+	–
O=C(NCc1ncc(F)cc1F)c1cc(NC(=O)c2cc(F)c(F)cc2Cl)[nH]n1 [Example 1-26]	< 100	–	+	–

Further lines, with some results ahead:

IC50 [1] [nM]	inhibition at 0.1 µM ([1]; figure in brackets (100), read-out: IC50: % value given with (100)) [%]	Compound	vivo (hypoglycemic effect in db/db mice) (db/db mice)	vivo (hypoglycemic effect) (db/db mice; db/db mice, blood plasma glucose, dose of 10 mg/kg or less)
100 to 300	–	O=C(NCc1ccccc1)c1cc(NC(=O)c2cc(F)c(F)cc2Cl)[nH]n1 [Example 3-2, 5-(2-chloro-4,5-difluoro-benzoylamino)-1H-pyrazole-3-carboxylic acid benzylamide]	+	–
< 100	–	COc1ccnc(CNC(=O)c2cc(NC(=O)c3cc(F)c(F)cc3Cl)[nH]n2)c1 [Example 3-45]	+	–
–	9.8	CC(OC(=O)OC1CCCCC1)OC(=O)c1ccc(N(C)C(=O)c2cc(NC(=O)c3cc(F)c(F)cc3Cl)[nH]n2)cc1 (stereo not shown) [Example 6-17]	–	+
< 100	–	Cc1ncccc1CNC(=O)c1cc(NC(=O)c2cc(F)c(F)cc2Cl)[nH]n1 [Example 2-28]	+	–
< 100	–	COc1ccc(CNC(=O)c2cc(NC(=O)c3cc(F)c(F)cc3Cl)[nH]n2)c(OC)n1 [Example 3-46]	+	–
< 100	–	Cc1ncsc1CNC(=O)c1cc(NC(=O)c2cc(F)c(F)cc2Cl)[nH]n1.Cl [Example 5-32]	+	–
< 100	–	O=C(NCc1ccc(N2CCCC2)nc1)c1cc(NC(=O)c2cc(F)c(F)cc2Cl)[nH]n1 [Example 5-41]	+	–
< 100	–	COc1ccc(CNC(=O)c2cc(NC(=O)c3cc(F)c(F)cc3C)[nH]n2)cn1 [Example 5-2]	+	–
< 100	–	CCN(CC)c1ccc(CNC(=O)c2cc(NC(=O)c3cc(F)c(F)cc3Cl)[nH]n2)cn1 [Example 5-29]	++	–
< 100	–	COCCN(C(=O)c1cc(NC(=O)c2cc(F)c(F)cc2Cl)[nH]n1)c1ccccc1 [Example 4-34]	+	–
